Holding throughout (assay type): biochemical
One experiment concerns the target T1, LCK (Homo sapiens, UniProt P06239).
T1 construct: purchased Invitrogen P3043
Description: LCK inhibition, FRET based Z'-LYTE Kinase Assay. The settings on record: 25 nM LCK, 180 μM ATP; read-out: IC50 Range Lck. The procedure: (§1) FLT3 and LCK compound inhibition were determined using FRET based Z′-LYTE Kinase Assay Kit with Tyrosine 2 peptide as the substrate (Invitrogen cat #PV3191). […] The % inhibition values were determined according to the manufacturer's directions and IC50 values were obtained using a non-linear 4 point logistic curve fit (XLfit4, IDBS).

For the next experiment, the target named is T2, FLT3 (Homo sapiens, UniProt P36888).
T2 construct: purchased Invitrogen PV3182
T2 sequence (P36888 27-993): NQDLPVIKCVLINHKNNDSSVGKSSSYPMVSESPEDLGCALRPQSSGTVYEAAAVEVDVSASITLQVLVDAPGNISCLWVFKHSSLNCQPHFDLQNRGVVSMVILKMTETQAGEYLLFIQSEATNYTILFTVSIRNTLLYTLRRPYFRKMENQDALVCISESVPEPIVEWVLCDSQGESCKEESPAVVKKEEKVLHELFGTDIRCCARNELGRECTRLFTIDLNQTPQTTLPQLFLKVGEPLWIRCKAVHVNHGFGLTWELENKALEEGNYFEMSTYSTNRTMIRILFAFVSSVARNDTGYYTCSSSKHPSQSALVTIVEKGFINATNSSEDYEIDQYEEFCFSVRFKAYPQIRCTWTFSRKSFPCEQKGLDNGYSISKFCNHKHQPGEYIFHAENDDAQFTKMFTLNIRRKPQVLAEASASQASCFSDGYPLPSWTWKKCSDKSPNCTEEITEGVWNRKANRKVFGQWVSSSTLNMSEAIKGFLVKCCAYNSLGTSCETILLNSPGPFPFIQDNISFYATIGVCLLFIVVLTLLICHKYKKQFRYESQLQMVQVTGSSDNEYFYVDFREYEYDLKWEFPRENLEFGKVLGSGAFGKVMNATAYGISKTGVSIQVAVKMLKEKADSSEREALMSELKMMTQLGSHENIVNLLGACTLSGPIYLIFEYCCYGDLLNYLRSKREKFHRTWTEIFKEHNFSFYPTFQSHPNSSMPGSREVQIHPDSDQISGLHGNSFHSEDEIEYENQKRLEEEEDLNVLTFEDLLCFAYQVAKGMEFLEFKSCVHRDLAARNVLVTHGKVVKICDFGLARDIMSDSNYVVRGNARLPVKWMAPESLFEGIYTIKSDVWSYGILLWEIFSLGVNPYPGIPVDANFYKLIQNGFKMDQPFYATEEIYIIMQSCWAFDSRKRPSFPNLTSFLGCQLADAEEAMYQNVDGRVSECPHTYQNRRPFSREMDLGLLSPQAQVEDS
Nature of the experiment: FLT3 inhibition, FRET based Z'-LYTE Kinase Assay. The settings on record: 1 nM FLT3, 940 μM ATP; read-out: IC50 Range Flt3. As for the experimental part: as §1

The target in another experiment is T3, human HPK1 (MAP4K1) (Homo sapiens, UniProt Q92918).
T3 construct: human HPK1 (aa 1-346); purchased Invitrogen PV6355
T3 sequence (Q92918 1-346): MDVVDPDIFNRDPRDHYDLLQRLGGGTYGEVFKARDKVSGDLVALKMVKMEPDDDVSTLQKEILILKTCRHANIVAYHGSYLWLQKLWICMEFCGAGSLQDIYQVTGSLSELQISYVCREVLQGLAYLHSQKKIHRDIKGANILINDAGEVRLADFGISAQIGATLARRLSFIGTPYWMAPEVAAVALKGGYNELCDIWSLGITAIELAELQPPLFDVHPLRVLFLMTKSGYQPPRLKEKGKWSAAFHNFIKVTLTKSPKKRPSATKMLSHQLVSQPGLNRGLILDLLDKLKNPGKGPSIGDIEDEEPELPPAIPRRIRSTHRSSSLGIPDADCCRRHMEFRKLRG
Nature of the experiment: HPK1 inhibition assay (indirect ELISA). The conditions noted are these: GST-HPK1 0.6 nM, 12 μM ATP; read-out: IC50 Range HPK1. The method, boiled down:
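GST-tagged human HPK1 (aa 1-346, 0.6 nM) phosphorylated MBP-coated wells with 12 μM ATP in MOPS pH 7.2/Mg2+ buffer for 30 min after 15-min compound preincubation; phospho-Thr detected by antibody ELISA with TMB, 450 nm. Tested at 10 μM or 10-point titration (typically 50-0.1 μM); IC50 by 4-parameter logistic fit.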
For orientation: ELISA stands for enzyme-linked immunosorbent assay.

Consider 15 compounds from patent publication US11059832B2, “HPK1 inhibitors and methods of using same” (University Health Network, priority 2015, dated 2021).

The structures appear in SMILES notation. A value given as a limit tells only on which side of the number the result lay.

T1 sequence (P06239 whole entry, species assumed): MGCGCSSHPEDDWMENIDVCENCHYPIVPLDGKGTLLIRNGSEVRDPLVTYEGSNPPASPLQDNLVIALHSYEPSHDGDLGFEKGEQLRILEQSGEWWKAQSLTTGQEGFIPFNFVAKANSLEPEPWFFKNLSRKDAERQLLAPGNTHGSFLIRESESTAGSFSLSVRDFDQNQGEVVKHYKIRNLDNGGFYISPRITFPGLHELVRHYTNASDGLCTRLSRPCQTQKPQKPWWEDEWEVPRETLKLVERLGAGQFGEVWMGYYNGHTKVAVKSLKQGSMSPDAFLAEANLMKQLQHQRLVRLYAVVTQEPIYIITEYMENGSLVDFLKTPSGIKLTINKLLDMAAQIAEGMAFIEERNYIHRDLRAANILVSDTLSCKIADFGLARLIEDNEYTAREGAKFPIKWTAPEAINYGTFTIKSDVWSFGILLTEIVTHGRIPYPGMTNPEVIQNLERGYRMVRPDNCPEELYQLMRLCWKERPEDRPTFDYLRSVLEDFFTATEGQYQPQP

For orientation: IC50 means the midpoint of a concentration-inhibition curve. Consider `CN1CCN(c2ccc3nc(-c4c(NC5CCN(C=O)CC5)c5ccsc5[nH]c4=O)[nH]c3c2)CC1` [Example A17, 4-((5-(6-(4-methylpiperazin-1-yl)-1H-benzo[d]imidazol-2-yl)-6-oxo-6,7-dihydrothieno[2,3-b]pyridin-4-yl)amino)piperidine-1-carbaldehyde], for which the IC50 at LCK, on FLT3 and on human HPK1 (MAP4K1) was no more than 50 nM in each case.

As for `CN1CCN(c2ccc3nc(-c4c(N[C@H]5CCCC[C@@H]5O)c5sccc5[nH]c4=O)[nH]c3c2)CC1` [Example A41, 7-(((1S,2S)-2-hydroxycyclohexyl)amino)-6-(6-(4-methylpiperazin-1-yl)-1H-benzo[d]imidazol-2-yl)thieno[3,2-b]pyridin-5(4H)-one], the IC50 at LCK, at FLT3 and on human HPK1 (MAP4K1) was no more than 50 nM in each case.

Turning to `CN1CCN(c2ccc3nc(-c4c(N[C@@H]5CC[C@@H](O)C5)c5ccsc5[nH]c4=O)[nH]c3c2)CC1` (relative stereo) [Example A9, 4-(((1R*,3R*)-3-hydroxycyclopentyl)amino)-5-(6-(4-methylpiperazin-1-yl)-1H-benzo[d]imidazol-2-yl)thieno[2,3-b]pyridin-6(7H)-one], the IC50 on LCK, on FLT3 and on human HPK1 (MAP4K1) was no more than 50 nM in each case.

Consider `Nc1c(-c2nc3ccc(N4CCN(C5COC5)CC4)cc3[nH]2)c(=O)[nH]c2sccc12` [Example A65, 4-amino-5-(6-(4-(oxetan-3-yl)piperazin-1-yl)-1H-benzo[d]imidazol-2-yl)thieno[2,3-b]pyridin-6(7H)-one], for which the IC50 is 50 to 500 nM on LCK, no more than 50 nM at FLT3 and no more than 50 nM at human HPK1 (MAP4K1).

Regarding `CN1CCN(c2ccc3nc(-c4c(NC5CCCC5)c5cscc5[nH]c4=O)[nH]c3c2)CC1` [Example A24, 4-(cyclopentylamino)-3-(6-(4-methylpiperazin-1-yl)-1H-benzo[d]imidazol-2-yl)thieno[3,4-b]pyridin-2(1H)-one], the IC50 on LCK, at FLT3 and at human HPK1 (MAP4K1) was no more than 50 nM in each case.

Take `CN1CCN(c2ccc3nc(-c4c(NC5CCC5)c5cscc5[nH]c4=O)[nH]c3c2)CC1` [Example A27, 4-(cyclobutylamino)-3-(6-(4-methylpiperazin-1-yl)-1H-benzo[d]imidazol-2-yl)thieno[3,4-b]pyridin-2(1H)-one]: the IC50 at LCK, on FLT3 and at human HPK1 (MAP4K1) was no more than 50 nM each time.

Turning to `CN1CCN(c2ccc3nc(-c4c(N[C@H]5CCCC[C@H]5O)c5sccc5[nH]c4=O)[nH]c3c2)CC1` [Example A44, 7-(((1S,2R)-2-hydroxycyclohexyl)amino)-6-(6-(4-methylpiperazin-1-yl)-1H-benzo[d]imidazol-2-yl)thieno[3,2-b]pyridin-5(4H)-one], the IC50 at LCK, at FLT3 and at human HPK1 (MAP4K1) was no more than 50 nM each time.

`Cc1cc2[nH]c(-c3c(N)c4ccsc4[nH]c3=O)nc2cc1N1CCN(C)CC1` [Example A61, 4-amino-5-(6-methyl-5-(4-methylpiperazin-1-yl)-1H-benzo[d]imidazol-2-yl)thieno[2,3-b]pyridin-6(7H)-one]: the IC50 on LCK was 50 to 500 nM; at FLT3, no more than 50 nM; at human HPK1 (MAP4K1), no more than 50 nM.

Regarding `CN1CCN(c2ccc3nc(-c4c(N[C@@H]5CCC[C@H]5O)c5ccsc5[nH]c4=O)[nH]c3c2)CC1` [Example A67, 4-(((1R,2R)-2-hydroxycyclopentyl)amino)-5-(6-(4-methylpiperazin-1-yl)-1H-benzo[d]imidazol-2-yl)thieno[2,3-b]pyridin-6(7H)-one], the IC50 at LCK is 50 to 500 nM; on FLT3, no more than 50 nM; on human HPK1 (MAP4K1), no more than 50 nM.

For the compound `CN1CCC(Nc2c(-c3nc4ccc(N5CCOCC5)cc4[nH]3)c(=O)[nH]c3ccsc23)CC1` [Example A45, 7((1-methylpiperidin-4-yl)amino)-6-(6-morpholino-1H-benzo[d]imidazol-2-yl)thieno[3,2-b]pyridin-5(4H)-one], the IC50 at LCK, on FLT3 and on human HPK1 (MAP4K1) was no more than 50 nM each time.

For `CN1CCN(c2ccc3nc(-c4c(N[C@@H]5CCNC[C@H]5F)c5ccsc5[nH]c4=O)[nH]c3c2)CC1` [Example A14, 4-(((3R,4R)-3-fluoropiperidin-4-yl)amino)-5-(6-(4-methylpiperazin-1-yl)-1H-benzo[d]imidazol-2-yl)thieno[2,3-b]pyridin-6(7H)-one], the IC50 on LCK, at FLT3 and on human HPK1 (MAP4K1) was no more than 50 nM throughout.

For `CN1CCN(c2cc3[nH]c(-c4c(N)c5sccc5[nH]c4=O)nc3cc2F)CC1` [Example A68, 7-amino-6-(5-fluoro-6-(4-methylpiperazin-1-yl)-1H-benzo[d]imidazol-2-yl)thieno[3,2-b]pyridin-5(4H)-one], the IC50 at LCK, on FLT3 and on human HPK1 (MAP4K1) was no more than 50 nM each time.

For `CN1CCN(c2ccc3nc(-c4c(NCC5CCOCC5)c5sccc5[nH]c4=O)[nH]c3c2)CC1` [Example A38, 6-(6-(4-methylpiperazin-1-yl)-1H-benzo[d]imidazol-2-yl)-7-(((tetrahydro-2H-pyran-4-yl)methyl)amino)thieno[3,2-b]pyridin-5(4H)-one], the half-maximal inhibitory concentration (IC50) on LCK, at FLT3 and at human HPK1 (MAP4K1) was no more than 50 nM each time.

With `CN1CCN(c2ccc3nc(-c4c(NC5CCOCC5)c5sccc5[nH]c4=O)[nH]c3c2)CC1` [Example A35, 6-(6-(4-methylpiperazin-1-yl)-1H-benzo[d]imidazol-2-yl)-7-((tetrahydro-2H-pyran-4-yl)amino)thieno[3,2-b]pyridin-5(4H)-one], the concentration for half-maximal inhibition (IC50) on LCK, at FLT3 and at human HPK1 (MAP4K1) was no more than 50 nM each time.

On to `CN1CCN(c2ccc3nc(-c4c(N[C@H]5CC[C@@H](O)CC5)c5sccc5[nH]c4=O)[nH]c3c2)CC1` [Example A40, 7-(((1S,4S)-4-hydroxycyclohexyl)amino)-6-(6-(4-methylpiperazin-1-yl)-1H-benzo[d]imidazol-2-yl)thieno-[3,2-b]pyridin-5(4H)-one], for which the IC50 on LCK, at FLT3 and on human HPK1 (MAP4K1) was no more than 50 nM each time.
